In one data set the test system is stem cells from fat. Description: Reprogramming of harvested adipose stem cells by drug treatment. Format: cell-based. The following applies: harvested stem cells treated with the drug. From the text: Embodiments of the present invention include performing adult adipose derived stem cell therapy to treat patients with ALS. Amyelotrophic Lateral Sclerosis (ALS) is a fatal disease with no treatment options. Since ALS is a neurological disorder, it was believed that patients would need neural stem cells, not the mesenchymal type stem cells that we have obtained from harvested adipose tissue. But, because neural stem cells are difficult to attain for various physiological and regulatory reasons, a new technical approach that targets the conversion or reprogramming of mesenchymal type stem cells that are obtained from adipose tissue recovered from the same patient to be treated has been generated.
An examplary stem cell therapy involves the use of adipose derived stem cells, which are then incubated with Selegeline, which results in preinduction into motor neurons. Initially, adipose tissue or fat is harvested via a minimally invasive liposuction. Then the fat is processed to separate the vascular stromal fraction of stem cells. […] Once processed, the majority of stem cells are administered into the spine (spinal fluid) via a lumbar puncture. A small dilute fraction of cells are injected into a select muscle group. […] The techniques allowing for culturing of stem cells and the reintroduction will help increase stem cell numbers. […]

Another data set concerns ALS mouse model. The following applies: cited from earlier work.
In another data set the test system is SOD1 rats. The conditions noted are these: ex vivo gene delivery within muscles, midstages of the disease; cited from earlier work.
For data set [1] the following is noted: previous studies; cited from earlier work.

For `C#CCN(C)[C@H](C)Cc1ccccc1` [Selegeline], the “reprogramming of stem cells” value in the data set with stem cells from fat is “able to reprogram the stem cells from fat into neural like cells”.
As to IGF-1: Insulin like growth factor 1, in the data set on ALS mouse model, the progression entry is “delayed progression” and the survival result is listed as “increased survival”.

B1: GDNF: Glial derived neurotrophic factor; in b58 given by ex vivo gene delivery within muscles (protein, UniProt P39905 78-211, looked up)
Glial cell line-derived …: SPDKQMAVLPRRERNRQAAAANPENSRGKGRRGQRGKNRGCVLTAIHLNVTDLGLGYETKEELIFRYCSGSCDAAETTYDKILKNLSRNRRLVSDKVGQACCRPIAFDDDLSFLDDNLVYHILRKHSAKRCGCI
In the case of B1, the “number of neuromuscular connections and motor neuron cell bodies” value in the data set on ALS mouse model is “increased the number of neuromuscular connections and motor neuron cell bodies”. The “number of neuromuscular connections and MN cell bodies” value with SOD1 rats is “significantly increased the number of neuromuscular connections”.

B2: CNTF: a neurotrophic factor that is protective of neurons (protein, UniProt P26441 1-200, looked up)
Ciliary neurotrophic factor: MAFTEHSPLTPHRRDLCSRSIWLARKIRSDLTALTESYVKHQGLNKNINLDSADGMPVASTDQWSELTEAERLQENLQAYRTFHVLLARLLEDQQVHFTPTEGDFHQAIHTLLLQVAAFAYQIEELMILLEYKIPRNEADGMPINVGDGGLFEKKLWGLKVLQELSQWTVRSIHDLRFISSHQTGIPARGSHYIANNKKM
As to B2, in data set [1], the half life is 2.9 min.

Values taken from patent US20160193251A1, “METHOD FOR TREATING ALS VIA THE INCREASED PRODUCTION OF FACTOR H” (BioViva USA Inc., priority 2013, published 2016).
